# In patent US9198433B2, “Substituted benzene fungicides” (E I DU PONT DE NEMOURS AND COMPANY, priority 2007, dated 2015):
# Marks after values point to notes of the source that are not given here.
# Tests used:
# Format in all cases: in vivo
# [1] = system: Puccinia recondita f. sp. tritici; experiment: Test B: wheat leaf rust, preventive spray on wheat seedlings, disease rating
# Text: (§1) The test compounds were first dissolved in acetone in an amount equal to 3% of the final volume and then suspended at the desired concentration (in ppm) in acetone and purified water (50/50 mix) containing 250 ppm of the surfactant Trem® 014 (polyhydric alcohol esters). The resulting test suspensions were then used in Tests A-L. Spraying a 200 ppm test suspension to the point of run-off on the test plants was the equivalent of an application rate of 500 g/ha. The test suspension was sprayed to the point of run-off on wheat seedlings. […] A dash (-) indicates no test results. All results are for 200 ppm except where followed by an “*”, which indicates 40 ppm or “**”, which indicates 50 ppm.
# [2] = system: Erysiphe graminis f. sp. tritici; experiment: Test A: wheat powdery mildew, preventive spray on wheat seedlings, disease rating
# Text: as §1
# Septoria tritici = experiment: Test D: wheat leaf blotch, preventive spray on wheat seedlings, disease rating
# Text: The test compounds were first dissolved in acetone in an amount equal to 3% of the final volume and then suspended at the desired concentration (in ppm) in acetone and purified water (50/50 mix) containing 250 ppm of the surfactant Trem® 014 (polyhydric alcohol esters). The resulting test suspensions were then used in Tests A-L. Spraying a 200 ppm test suspension to the point of run-off on the test plants was the equivalent of an application rate of 500 g/ha. The test suspension was sprayed to the point of run-off on wheat seedlings. The following day the seedlings were inoculated with a spore suspension of Septoria tritici (the causal agent of wheat leaf blotch) and incubated in a saturated atmosphere at 24° C. for 48 h, and then moved to a growth chamber at 20° C. for 19 days, after which time disease ratings were made. […] A dash (-) indicates no test results. All results are for 200 ppm except where followed by an “*”, which indicates 40 ppm or “**”, which indicates 50 ppm.
# Alternaria solani = experiment: Test H: tomato early blight, preventive spray on tomato seedlings, disease rating
# Text: (§2) The test compounds were first dissolved in acetone in an amount equal to 3% of the final volume and then suspended at the desired concentration (in ppm) in acetone and purified water (50/50 mix) containing 250 ppm of the surfactant Trem® 014 (polyhydric alcohol esters). The resulting test suspensions were then used in Tests A-L. Spraying a 200 ppm test suspension to the point of run-off on the test plants was the equivalent of an application rate of 500 g/ha. The test suspension was sprayed to the point of run-off on tomato seedlings. […] A dash (-) indicates no test results. All results are for 200 ppm except where followed by an “*”, which indicates 40 ppm or “**”, which indicates 50 ppm.
# Botrytis cinerea = experiment: Test F: tomato Botrytis, preventive spray on tomato seedlings, disease rating
# Text: as §2
# Septoria nodorum = experiment: Test C: wheat glume blotch, preventive spray on wheat seedlings, disease rating
# Text: as §1
Compound,"Percentage Disease Control, Test B ([1]; 40 ppm (*))","Percentage Disease Control, Test A ([2]; 40 ppm (*))","Percentage Disease Control, Test D (Septoria tritici; 40 ppm (*))","Percentage Disease Control, Test H (Alternaria solani; 40 ppm (*))","Percentage Disease Control, Test F (Botrytis cinerea; 40 ppm (*))","Percentage Disease Control, Test C (Septoria nodorum; 40 ppm (*))","Percentage Disease Control, Test B ([1]; 200 ppm)","Percentage Disease Control, Test A ([2]; 200 ppm)","Percentage Disease Control, Test D (Septoria tritici; 200 ppm)","Percentage Disease Control, Test H (Alternaria solani; 200 ppm)","Percentage Disease Control, Test F (Botrytis cinerea; 200 ppm)","Percentage Disease Control, Test C (Septoria nodorum; 200 ppm)"
COC(=O)NCc1cc(-c2ccn(Cc3ccc(C)cc3)n2)ccc1Cl [Cmpd 72],99* %,99* %,100* %,94* %,97* %,100* %,,,,,,
COC(=O)NCc1cc(-c2ccn(Cc3cccc([N+](=O)[O-])c3)n2)ccc1Cl [Cmpd 73],98* %,74* %,98* %,14* %,95* %,96* %,,,,,,
COC(=O)NCc1cc(-c2ccn(-c3ccc(Cl)cc3)n2)ccc1Cl [Cmpd 74],100* %,100* %,100* %,99* %,51* %,100* %,,,,,,
COC(=O)NCc1cc(-c2ccn(Cc3cccc(C#N)c3)n2)ccc1Cl [Cmpd 75],93* %,72* %,91* %,61* %,20* %,40* %,,,,,,
COC(=O)NCc1cc(-c2ccn(Cc3ccccc3OC(F)(F)F)n2)ccc1Cl [Cmpd 76],100* %,99* %,100* %,0* %,0* %,99* %,,,,,,
COC(=O)NCc1cc(-c2ccn(-c3cc(C(F)(F)F)cc(C(F)(F)F)c3)n2)ccc1Cl [Cmpd 78],85* %,100* %,90* %,0* %,33* %,0* %,,,,,,
COC(=O)NCc1cc(-c2ccn(-c3cccc(Cl)c3)n2)ccc1Cl [Cmpd 80],98* %,98* %,100* %,29* %,60* %,100* %,,,,,,
COC(=O)NCc1cc(-c2ccn(-c3cccc(C)c3)n2)ccc1Cl [Cmpd 81],99* %,85* %,99* %,97* %,81* %,100* %,,,,,,
COC(=O)C(=O)c1cc(-c2ccn(-c3cccc(C(F)(F)F)c3)n2)ccc1C [Cmpd 83],,,,,,,0%,19%,89%,0%,0%,0%
CON=C(C(=O)OC)c1cc(-c2ccn(-c3cccc(C(F)(F)F)c3)n2)ccc1C [Cmpd 84],,98* %,99* %,,,,80%,,,54%,67%,92%
CNC(=O)C(=NOC)c1cc(-c2ccn(-c3cccc(C(F)(F)F)c3)n2)ccc1C [Cmpd 85],97* %,100* %,99* %,,,99* %,,,,86%,0%,
COC(=O)NCc1cc(-c2ccn(-c3cc(C(F)(F)F)ccn3)n2)ccc1Cl [Cmpd 86],100* %,99* %,98* %,9* %,0* %,100* %,,,,,,
